# From ChEMBL document CHEMBL1201862, “PubChem BioAssay data set” (2004)
#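 Protocol summary: plate cells (96-well), add compound at 5 concentrations, incubate 48 h, interpolate endpoints linearly. At the GI50, growth is halved.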 Active and inactive are the calls of the source. Cut-off read from the data, not from the text of the source: active = GI50 up to about 1.1 µM and inactive = higher.
# Key:
# Assay in all cases: DTP human tumour cell line panel, 48 h
# SF-539 = system: SF-539
# SW-620 = system: SW-620
# SK-MEL-2 = system: SK-MEL-2
# RXF 393 = system: RXF 393
# OVCAR-3 = system: OVCAR-3
# DLD-1 = system: DLD-1
# A549 = system: A549
# ACHN = system: ACHN
# 786-0 = system: 786-0
# MOLT-4 = system: MOLT-4
# OVCAR-8 = system: OVCAR-8
# CAKI-1 = system: CAKI-1
# HOP-92 = system: HOP-92
# SK-MEL-28 = system: SK-MEL-28
# DMS-273 = system: DMS-273
# IGROV-1 = system: IGROV-1
# UO-31 = system: UO-31
# COLO 205 = system: COLO 205
# HCC 2998 = system: HCC 2998
# SK-OV-3 = system: SK-OV-3
# U-251 = system: U-251
# CCRF-CEM = system: CCRF-CEM
# OVCAR-4 = system: OVCAR-4
# EKVX = system: EKVX
# SF-268 = system: SF-268
# NCI-H460 = system: NCI-H460
# XF498 = system: XF498
# LOX IMVI = system: LOX IMVI
# K562 = system: K562
# A498 = system: A498
# SF-295 = system: SF-295
# HOP-62 = system: HOP-62
# Malme-3M = system: Malme-3M
# M19-MEL = system: M19-MEL
# RPMI-8226 = system: RPMI-8226
# HCT-116 = system: HCT-116
# NCI-H226 = system: NCI-H226
# SNB-75 = system: SNB-75
# LXFL 529 = system: LXFL 529
# M14 = system: M14
# KM12 = system: KM12
# SK-MEL-5 = system: SK-MEL-5
# SNB-19 = system: SNB-19
# HL-60 = system: HL-60
# SR = system: SR
# KM-20L2 = system: KM-20L2
# UACC-62 = system: UACC-62
# NCI-H522 = system: NCI-H522
# DMS-114 = system: DMS-114
# OVCAR-5 = system: OVCAR-5
# UACC-257 = system: UACC-257
# HT-29 = system: HT-29
# TK-10 = system: TK-10
# RXF 631 = system: RXF 631
# NCI-H23 = system: NCI-H23
# HCT-15 = system: HCT-15
# SN12C = system: SN12C
# SNB-78 = system: SNB-78
# HOP-18 = system: HOP-18
compound,measurement,setting,value
O=C1C2=C(SCCS2)C(=O)c2ccccc21,GI50,SF-539,1720 nM (inactive)
same,GI50,SW-620,2110 nM (inactive)
same,GI50,SK-MEL-2,1990 nM (inactive)
same,GI50,RXF 393,2100 nM (inactive)
same,GI50,OVCAR-3,1710 nM (inactive)
same,GI50,DLD-1,1960 nM (inactive)
same,GI50,A549,1900 nM (inactive)
same,GI50,ACHN,1660 nM (inactive)
same,GI50,786-0,1740 nM (inactive)
same,GI50,MOLT-4,2230 nM (inactive)
same,GI50,OVCAR-8,1670 nM (inactive)
same,GI50,CAKI-1,1900 nM (inactive)
same,GI50,HOP-92,1680 nM (inactive)
same,GI50,SK-MEL-28,1850 nM (inactive)
same,GI50,DMS-273,1810 nM (inactive)
same,GI50,IGROV-1,1770 nM (inactive)
same,GI50,UO-31,1930 nM (inactive)
same,GI50,COLO 205,1610 nM (inactive)
same,GI50,HCC 2998,1650 nM (inactive)
same,GI50,SK-OV-3,1730 nM (inactive)
same,GI50,U-251,1640 nM (inactive)
same,GI50,CCRF-CEM,783 nM (active)
same,GI50,OVCAR-4,1650 nM (inactive)
same,GI50,EKVX,1390 nM (inactive)
same,GI50,SF-268,1660 nM (inactive)
same,GI50,NCI-H460,1830 nM (inactive)
same,GI50,XF498,1640 nM (inactive)
same,GI50,LOX IMVI,902 nM (active)
same,GI50,K562,1770 nM (inactive)
same,GI50,A498,2030 nM (inactive)
same,GI50,SF-295,1760 nM (inactive)
same,GI50,HOP-62,1560 nM (inactive)
same,GI50,Malme-3M,1810 nM (inactive)
same,GI50,M19-MEL,236 nM (active)
same,GI50,RPMI-8226,1790 nM (inactive)
same,GI50,HCT-116,1670 nM (inactive)
same,GI50,NCI-H226,2080 nM (inactive)
same,GI50,SNB-75,1670 nM (inactive)
same,GI50,LXFL 529,1640 nM (inactive)
same,GI50,M14,1870 nM (inactive)
same,GI50,KM12,1770 nM (inactive)
same,GI50,SK-MEL-5,1690 nM (inactive)
same,GI50,SNB-19,1540 nM (inactive)
same,GI50,HL-60,2310 nM (inactive)
same,GI50,SR,1200 nM (inactive)
same,GI50,KM-20L2,1940 nM (inactive)
same,GI50,UACC-62,1650 nM (inactive)
same,GI50,NCI-H522,1760 nM (inactive)
same,GI50,DMS-114,871 nM (active)
same,GI50,OVCAR-5,1830 nM (inactive)
same,GI50,UACC-257,1950 nM (inactive)
same,GI50,HT-29,2180 nM (inactive)
same,GI50,TK-10,1840 nM (inactive)
same,GI50,RXF 631,1820 nM (inactive)
same,GI50,NCI-H23,1850 nM (inactive)
same,GI50,HCT-15,1700 nM
same,GI50,SN12C,1950 nM (inactive)
O=C(N/N=C/c1cc(Br)ccc1O)N/N=C/c1cc(Br)ccc1O,GI50,SF-539,877 nM (active)
same,GI50,SW-620,1730 nM (inactive)
same,GI50,RXF 393,> 100000 nM (inactive)
same,GI50,DLD-1,2900 nM (inactive)
same,GI50,A549,1560 nM (inactive)
same,GI50,ACHN,4600 nM (inactive)
same,GI50,786-0,4930 nM (inactive)
same,GI50,MOLT-4,1970 nM (inactive)
same,GI50,OVCAR-8,2540 nM (inactive)
same,GI50,CAKI-1,2790 nM (inactive)
same,GI50,HOP-92,661 nM (active)
same,GI50,SK-MEL-28,> 100000 nM (inactive)
same,GI50,DMS-273,791 nM (active)
same,GI50,IGROV-1,2140 nM (inactive)
same,GI50,UO-31,640 nM (active)
same,GI50,COLO 205,4450 nM (inactive)
same,GI50,SK-OV-3,69000 nM (inactive)
same,GI50,U-251,3550 nM (inactive)
same,GI50,CCRF-CEM,1400 nM (inactive)
same,GI50,OVCAR-4,3720 nM (inactive)
same,GI50,EKVX,4930 nM (inactive)
same,GI50,SF-268,5750 nM (inactive)
same,GI50,NCI-H460,3100 nM (inactive)
same,GI50,XF498,2190 nM (inactive)
same,GI50,LOX IMVI,5850 nM (inactive)
same,GI50,K562,377 nM (active)
same,GI50,A498,> 100000 nM (inactive)
same,GI50,SF-295,3840 nM (inactive)
same,GI50,HOP-62,4460 nM (inactive)
same,GI50,Malme-3M,3640 nM (inactive)
same,GI50,M19-MEL,> 100000 nM (inactive)
same,GI50,NCI-H226,2020 nM (inactive)
same,GI50,KM12,5350 nM (inactive)
same,GI50,SK-MEL-5,2490 nM (inactive)
same,GI50,SNB-19,5310 nM (inactive)
same,GI50,HL-60,1250 nM (inactive)
same,GI50,SR,3500 nM (inactive)
same,GI50,KM-20L2,4850 nM (inactive)
same,GI50,UACC-62,2240 nM (inactive)
same,GI50,NCI-H522,1990 nM (inactive)
same,GI50,DMS-114,1180 nM (inactive)
same,GI50,OVCAR-5,2840 nM (inactive)
same,GI50,UACC-257,4300 nM (inactive)
same,GI50,HT-29,5970 nM (inactive)
same,GI50,TK-10,54600 nM (inactive)
same,GI50,RXF 631,14200 nM (inactive)
same,GI50,NCI-H23,2310 nM (inactive)
same,GI50,SN12C,5350 nM (inactive)
C/C=C/C=C/c1cc2cc3c(c(O)c2c(=O)[nH]1)C1(CC3)C(=O)c2c(O)c3c(c(O)c2C1=O)C(=O)C(OC)=CC3=O (centres undefined),GI50,DLD-1,552 nM (active)
same,GI50,DMS-273,414 nM (active)
same,GI50,M19-MEL,953 nM (active)
same,GI50,LXFL 529,440 nM (active)
same,GI50,SNB-78,4110 nM (inactive)
same,GI50,KM-20L2,1080 nM (active)
same,GI50,DMS-114,337 nM (active)
same,GI50,RXF 631,13200 nM (inactive)
same,GI50,HOP-18,615 nM (active)
